In patent US9952208B2, “Means and methods for bioluminescence resonance energy transfer (BRET) analysis in a biological sample” (priority 2013, dated 2018):

Test system: DIG10.3
Test: Binding of tethered ligand to binding protein DIG10.3

binding to DIG10.3: binds weakly
SMILES: CC(=O)[C@H]1CC[C@H]2[C@@H]3CCC4=CC(=O)CC[C@]4(C)[C@H]3CC[C@]12C [Progesterone, progesterone]
